Laboratory results from the supplement of paper PMC10307832.

Legend:
Experiment in all cases: relative viability (nuclei count vs DMSO), 5 days (fraction); higher = more cells survive
PC-14 = system: PC-14
Summary of the method: (§1)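 The day after seeding in 1536-well plates, lung cancer cell lines were treated by pin tool with a single drug, or with a fixed anchor-drug dose together with five library-drug doses (not always all listed) in √10 steps. After 5 days, a combined fix-and-stain solution (final 0.05% Triton X-100, 1% formaldehyde, 1 ug/ml Hoechst) was added. Nuclei counted on 4× images gave relative viability as treated counts over vehicle counts, reported as the median of duplicate plates.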

IA-LM = system: IA-LM
Summary of the method: as §1

NCI-H1299 = system: NCI-H1299
Summary of the method: as §1

Calu-6 = system: Calu-6
Summary of the method: as §1

NCI-H596 = system: NCI-H596
Summary of the method: as §1

NCI-H1666 = system: NCI-H1666
Summary of the method: as §1

NCI-H661 = system: NCI-H661
Summary of the method: as §1

SK-LU-1 = system: SK-LU-1
Summary of the method: as §1

NCI-H1703 = system: NCI-H1703
Summary of the method: as §1

EBC-1 = system: EBC-1
Summary of the method: as §1

A549 = system: A549
Summary of the method: as §1

NCI-H1944 = system: NCI-H1944
Summary of the method: as §1

Cc1csc(=NC2CCCCC2)n1/N=C/c1ccc(O)c(O)c1O [MIM1] + CC(C)C[C@H](NC(=O)[C@H](Cc1ccccc1)NC(=O)c1cnccn1)B(O)O [Bortezomib] (partner 0.002 µM)
relative viability (PC-14; first compound 0.2 µM): 0.751 | relative viability (PC-14; first compound 0.6325 µM): 0.882 | relative viability (PC-14; first compound 2 µM): 0.779 | relative viability (PC-14; first compound 6.325 µM): 0.692 | relative viability (PC-14; first compound 20 µM): 0.192 | relative viability (IA-LM; first compound 0.2 µM): 0.754 | relative viability (IA-LM; first compound 0.6325 µM): 0.792 | relative viability (IA-LM; first compound 2 µM): 0.783 | relative viability (IA-LM; first compound 6.325 µM): 0.275 | relative viability (IA-LM; first compound 20 µM): 0.0874 | relative viability (NCI-H1299; first compound 0.2 µM): 1.01 | relative viability (NCI-H1299; first compound 0.6325 µM): 1.03 | relative viability (NCI-H1299; first compound 2 µM): 0.999 | relative viability (NCI-H1299; first compound 6.325 µM): 0.965 | relative viability (NCI-H1299; first compound 20 µM): 0.994 | relative viability (Calu-6; first compound 0.2 µM): 1.05 | relative viability (Calu-6; first compound 0.6325 µM): 1.1 | relative viability (Calu-6; first compound 2 µM): 0.923 | relative viability (Calu-6; first compound 6.325 µM): 0.289 | relative viability (Calu-6; first compound 20 µM): 0.203 | relative viability (NCI-H596; first compound 0.6325 µM): 1.16 | relative viability (NCI-H596; first compound 2 µM): 0.988 | relative viability (NCI-H596; first compound 6.325 µM): 0.999 | relative viability (NCI-H596; first compound 20 µM): 0.951 | relative viability (NCI-H1666; first compound 0.2 µM): 0.863 | relative viability (NCI-H1666; first compound 0.6325 µM): 0.916 | relative viability (NCI-H1666; first compound 2 µM): 0.722 | relative viability (NCI-H1666; first compound 6.325 µM): 0.568 | relative viability (NCI-H1666; first compound 20 µM): 0.249 | relative viability (NCI-H661; first compound 0.2 µM): 0.843 | relative viability (NCI-H661; first compound 0.6325 µM): 0.861 | relative viability (NCI-H661; first compound 2 µM): 0.648 | relative viability (NCI-H661; first compound 6.325 µM): 0.453 | relative viability (NCI-H661; first compound 20 µM): 0.221 | relative viability (SK-LU-1; first compound 0.2 µM): 1.05 | relative viability (SK-LU-1; first compound 0.6325 µM): 1.09 | relative viability (SK-LU-1; first compound 2 µM): 1.09 | relative viability (SK-LU-1; first compound 6.325 µM): 0.962 | relative viability (SK-LU-1; first compound 20 µM): 0.947 | relative viability (NCI-H1703; first compound 0.2 µM): 0.386 | relative viability (NCI-H1703; first compound 0.6325 µM): 0.358 | relative viability (NCI-H1703; first compound 2 µM): 0.318 | relative viability (NCI-H1703; first compound 6.325 µM): 0.155 | relative viability (NCI-H1703; first compound 20 µM): 0.133 | relative viability (EBC-1; first compound 0.2 µM): 0.496 | relative viability (EBC-1; first compound 0.6325 µM): 0.569 | relative viability (EBC-1; first compound 2 µM): 0.647 | relative viability (EBC-1; first compound 6.325 µM): 0.324 | relative viability (EBC-1; first compound 20 µM): 0.242

Cc1cn(-c2cc(NC(=O)c3ccc(C)c(Nc4nccc(-c5cccnc5)n4)c3)cc(C(F)(F)F)c2)cn1 [Nilotinib] + CC1(C)CCC(c2ccc(Cl)cc2)=C(CN2CCN(c3ccc(C(=O)NS(=O)(=O)c4ccc(N[C@H](CCN5CCOCC5)CSc5ccccc5)c(S(=O)(=O)C(F)(F)F)c4)cc3)CC2)C1 [Navitoclax] (partner 0.5 µM)
relative viability (PC-14; first compound 0.003162 µM): 1.09 | relative viability (PC-14; first compound 0.01 µM): 1.19 | relative viability (PC-14; first compound 0.03162 µM): 0.882 | relative viability (PC-14; first compound 0.1 µM): 1.07 | relative viability (IA-LM; first compound 0.001 µM): 0.499 | relative viability (IA-LM; first compound 0.003162 µM): 0.603 | relative viability (IA-LM; first compound 0.01 µM): 0.795 | relative viability (IA-LM; first compound 0.03162 µM): 0.747 | relative viability (IA-LM; first compound 0.1 µM): 0.889 | relative viability (A549; first compound 0.001 µM): 1.2 | relative viability (A549; first compound 0.003162 µM): 1.47 | relative viability (A549; first compound 0.01 µM): 1.14 | relative viability (A549; first compound 0.03162 µM): 0.789 | relative viability (NCI-H1299; first compound 0.003162 µM): 1.08 | relative viability (NCI-H1299; first compound 0.01 µM): 1.13 | relative viability (NCI-H1299; first compound 0.03162 µM): 1.07 | relative viability (NCI-H1299; first compound 0.1 µM): 1.03 | relative viability (Calu-6; first compound 0.001 µM): 0.781 | relative viability (Calu-6; first compound 0.003162 µM): 0.845 | relative viability (Calu-6; first compound 0.01 µM): 1.05 | relative viability (Calu-6; first compound 0.03162 µM): 0.641 | relative viability (Calu-6; first compound 0.1 µM): 0.929 | relative viability (NCI-H596; first compound 0.001 µM): 0.924 | relative viability (NCI-H596; first compound 0.003162 µM): 1.12 | relative viability (NCI-H596; first compound 0.01 µM): 1.13 | relative viability (NCI-H596; first compound 0.03162 µM): 0.673 | relative viability (NCI-H596; first compound 0.1 µM): 0.922 | relative viability (NCI-H1666; first compound 0.001 µM): 0.994 | relative viability (NCI-H1666; first compound 0.003162 µM): 1.24 | relative viability (NCI-H1666; first compound 0.01 µM): 0.98 | relative viability (NCI-H1666; first compound 0.03162 µM): 0.895 | relative viability (NCI-H1666; first compound 0.1 µM): 0.759 | relative viability (NCI-H1944; first compound 0.001 µM): 1.03 | relative viability (NCI-H1944; first compound 0.003162 µM): 1.13 | relative viability (NCI-H1944; first compound 0.01 µM): 1.22 | relative viability (NCI-H1944; first compound 0.03162 µM): 1.12 | relative viability (NCI-H1944; first compound 0.1 µM): 0.987 | relative viability (SK-LU-1; first compound 0.001 µM): 0.703 | relative viability (SK-LU-1; first compound 0.003162 µM): 1.17 | relative viability (SK-LU-1; first compound 0.01 µM): 1.14 | relative viability (SK-LU-1; first compound 0.03162 µM): 0.582 | relative viability (SK-LU-1; first compound 0.1 µM): 0.827 | relative viability (NCI-H1703; first compound 0.001 µM): 1.01 | relative viability (NCI-H1703; first compound 0.003162 µM): 0.482 | relative viability (NCI-H1703; first compound 0.01 µM): 0.325 | relative viability (NCI-H1703; first compound 0.03162 µM): 0.229 | relative viability (EBC-1; first compound 0.001 µM): 0.351 | relative viability (EBC-1; first compound 0.003162 µM): 0.373 | relative viability (EBC-1; first compound 0.01 µM): 0.332 | relative viability (EBC-1; first compound 0.03162 µM): 0.289 | relative viability (EBC-1; first compound 0.1 µM): 0.186
